The text below walks through data of patent publication US8563542B2 (Cyclacel Limited, priority 2007, dated 2013).

One test deals with T1, AA (Homo sapiens, UniProt O14965).
T1 sequence (O14965 1-403): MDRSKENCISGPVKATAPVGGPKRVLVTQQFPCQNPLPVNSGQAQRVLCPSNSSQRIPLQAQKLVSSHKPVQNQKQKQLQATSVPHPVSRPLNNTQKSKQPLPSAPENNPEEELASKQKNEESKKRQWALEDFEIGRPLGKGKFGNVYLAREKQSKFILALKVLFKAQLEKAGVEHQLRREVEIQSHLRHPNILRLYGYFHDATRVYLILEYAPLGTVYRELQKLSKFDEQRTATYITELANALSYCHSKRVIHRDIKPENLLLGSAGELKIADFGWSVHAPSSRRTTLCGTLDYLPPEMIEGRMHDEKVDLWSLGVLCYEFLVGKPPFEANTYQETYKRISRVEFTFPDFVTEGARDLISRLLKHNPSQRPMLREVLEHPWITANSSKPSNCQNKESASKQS
In words: AA IC50 (Table 1; no method given). In kind it is biochemical. Conditions: Table 1; read-out: AA IC50.
For the compound `COc1cc(C(=O)O)ccc1Nc1ncc2c(n1)N(C1CCCCC1)CCC(=O)N2` [compound 9, 4-(9-Cyclohexyl-6-oxo-6,7,8,9-tetrahydro-5H-pyrimido[4,5-b][1,4]diazepin-2-ylamino)-3-methoxy-benzoic acid], the IC50 was in the range of 1000 to 10000 nM.

The test is the same for the next values; noted with them: Table 2, AurA IC50; class symbols; read-out: AurA IC50.
Take `CN1C(=O)CCN(c2ccccc2Cl)c2nc(Nc3ccc4c(c3)CS(=O)(=O)C4)ncc21` [compound 135, 9-(2-Chloro-phenyl)-2-(2,2-dioxo-2,3-dihydro-1H-2lambda*6*-benzo[c]thiophen-5-ylamino)-5-methyl-5,7,8,9-tetrahydro-pyrimido[4,5-b][1,4]diazepin-6-one]: the IC50 was less than 1000 nM.

As for `CN1C(=O)CCN(c2c(F)cccc2F)c2nc(Nc3ccc4c(c3)CS(=O)(=O)C4)ncc21` [compound 339, 9-(2,6-Difluoro-phenyl)-2-(2,2-dioxo-2,3-dihydro-1H-2lambda*6*-benzo[c]thiophen-5-ylamino)-5-methyl-5,7,8,9-tetrahydro-pyrimido[4,5-b][1,4]diazepin-6-one], the half-inhibitory concentration (IC50) is less than 100 nM.

In the case of `COc1ccc(CN2CC(C)C(=O)N(C)c3cnc(Nc4ccc(C(=O)O)cc4)nc32)cc1OC` (stereo not drawn) [compound 45, 4-[9-(3,4-Dimethoxy-benzyl)-5,7-dimethyl-6-oxo-6,7,8,9-tetrahydro-5H-pyrimido[4,5-b][1,4]diazepin-2-ylamino]-benzoic acid], the IC50 was less than 10000 nM.

Regarding `CCN1C(=O)CCN(c2ccc(C(C)(C)C)cc2)c2nc(Nc3ccc4c(c3)CS(=O)(=O)C4)ncc21` [compound 335, 9-(4-tert-Butyl-phenyl)-2-(2,2-dioxo-2,3-dihydro-1H-2lambda*6*-benzo[c]thiophen-5-ylamino)-5-ethyl-5,7,8,9-tetrahydro-pyrimido[4,5-b][1,4]diazepin-6-one], the 50% inhibitory concentration (IC50) is less than 10000 nM.

Turning to `CC(C)C1CC(=O)N(C)c2cnc(Nc3ccc4c(c3)CS(=O)(=O)C4)nc2N1C1CCCC1` (stereo not drawn) [compound 80, 9-Cyclopentyl-2-(2,2-dioxo-2,3-dihydro-1H-2lambda*6*-benzo[c]thiophen-5-ylamino)-8-isopropyl-5-methyl-5,7,8,9-tetrahydro-pyrimido[4,5-b][1,4]diazepin-6-one], the half-maximal inhibitory concentration (IC50) is less than 1000 nM.

`COc1ccc(N2CCC(=O)N(C)c3cnc(Nc4ccc(NC(=O)C5CC5)c(C)c4)nc32)cc1` [compound 327, Cyclopropanecarboxylic acid {4-[9-(4-methoxy-phenyl)-5-methyl-6-oxo-6,7,8,9-tetrahydro-5H-pyrimido[4,5-b][1,4]diazepin-2-ylamino]-2-methyl-phenyl}-amide]: the half-inhibitory concentration (IC50) is less than 100 nM.

For the compound `CN1C(=O)CCN(C(C)(C)C)c2nc(Nc3ccc(C(=O)O)cc3)ncc21` [compound 43, 4-(9-tert-Butyl-5-methyl-6-oxo-6,7,8,9-tetrahydro-5H-pyrimido[4,5-b][1,4]diazepin-2-ylamino)-benzoic acid], the 50% inhibitory concentration (IC50) was less than 1000 nM.

`CCN1C(=O)CCNc2nc(Nc3ccc4c(c3)CS(=O)(=O)C4)ncc21` [compound 126, 2-(2,2-Dioxo-2,3-dihydro-1H-2lambda*6*- benzo[c]thiophen-5-ylamino)-5-ethyl-5,7,8,9-tetrahydro-pyrimido[4,5-b][1,4]diazepin-6-one]: the IC50 was less than 10000 nM.

On to `CN1C(=O)CCN(C2CCCC2)c2nc(Nc3ccc(S(=O)(=O)NC4CCS(=O)(=O)C4)cc3)ncc21` (stereo not drawn) [compound 325, 4-(9-Cyclopentyl-5-methyl-6-oxo-6,7,8,9-tetrahydro-5H-pyrimido[4,5-b][1,4]diazepin-2-ylamino)-N-(1,1-dioxo-tetrahydro-1lambda*6*- thiophen-3-yl)-benzenesulfonamide], for which the IC50 is less than 1000 nM.

As for `Cc1cc(Nc2ncc3c(n2)N(c2ccc(N4CCOCC4)cc2)CCC(=O)N3C)ccc1NC(=O)C1CC1` [compound 337], the IC50 is less than 100 nM.

For the compound `Cc1cc(Nc2ncc3c(n2)N(c2c(F)cccc2F)CCC(=O)N3C)ccc1NC(=O)C1CC1` [compound 329, Cyclopropanecarboxylic acid {4-[9-(2,6-difluoro-phenyl)-5-methyl-6-oxo-6,7,8,9-tetrahydro-5H-pyrimido[4,5-b][1,4]diazepin-2-ylamino]-2-methyl-phenyl}amide], the IC50 was less than 1000 nM.
